The results in this text go back to patent publication US9238005B2, “Dry powder formulations and methods for treating pulmonary diseases” (Pulmatrix Operating Company, Inc., priority 2009, dated 2016).

Data set [1] in a line: Heat of solution in HBSS buffer. The data set is classed as physicochemical. The note with it: Avg.; for ΔH (kJ/mol) / ΔH (kcal/mol): HBSS buffer, per mol Ca, leucine per mol Leu; for Q / ΔT (deg. C): dissolution in HBSS buffer.
The nature of data set [2]: Fine particle fraction, two-stage collapsed Andersen Cascade Impactor (ACI-2). The note with it: spray dried from 70% ethanol, 50 g/L.
Data set [3] can be described thus: Volume median geometric diameter (x50/VMGD) and GSD by laser diffraction, HELOS/RODOS. The data set is classed as physicochemical.
Method: Volume median diameter (×50), which may also be referred to as volume median geometric diameter (VMGD), was determined using a laser diffraction technique. […] The RODOS disperser applies a shear force to a sample of particles, controlled by the regulator pressure (typically set at 1.0 bar with orifice ring pressure set at 7 mbar) of the incoming compressed dry air. […] The dispersed particles travel through a laser beam where the resulting diffracted light pattern produced is collected, typically using an R2 lens, by a series of detectors.
Data set [4] can be described thus: Dispersibility from passive dry powder inhalers (CEPM, Dv50, FPF vs inhalation energy). The data set is classed as physicochemical. The conditions noted are these: for average CEPM, share of capsule fill weight: 9.2 Joules (60 L/min for 2 L); for average Dv50: 9.2 Joules; for Dv50: measured lower energies. Here is the method: The dispersibility of various powder formulations was investigated by measuring the geometric particle size and the percentage of powder emitted from capsules when inhaling on dry powder inhalers with flow rates representative of patient use. The particle size distribution and weight change of the filled capsules were measured for multiple powder formulations as a function of flow rate, inhaled volume and fill weight in 2 passive dry powder inhalers.
In order to relate the dispersion of powder at different flow rates, volumes, and from inhalers of different resistances, the energy required to perform the inhalation maneuver was calculated and the particle size and dose emission data plotted against the inhalation energy. Inhalation energy was calculated as E=R^2Q^2V where E is the inhalation energy in Joules, R is the inhaler resistance in kPa^1/2/LPM, Q is the steady flow rate in L/min and V is the inhaled air volume in L.

[5] abbreviates: high resistance RS-01, 25 mg fill weight.
Where [6] appears, read: high resistance RS-01, 40 mg fill weight.
Setting [7] is: RS.01.HR, fill 25 mg, 15 LPM, 4 s, 0.29 J.
[8] abbreviates: RS.01.HR, fill 25 mg, 20 LPM, 3 s, 0.51 J.
Setting [9] is: RS.01.HR, fill 25 mg, 30 LPM, 2 s, 1.15 J.
The mark [10] stands for this setting: RS.01.HR, fill 25 mg, 60 LPM, 2 s, 9.18 J.
The mark [11] stands for this setting: RS.01.HR, fill 40 mg, 15 LPM, 4 s, 0.29 J.
The mark [12] stands for this setting: RS.01.HR, fill 40 mg, 20 LPM, 3 s, 0.51 J.
Setting [13] is: RS.01.HR, fill 40 mg, 30 LPM, 2 s, 1.15 J.
[14] abbreviates: RS.01.HR, fill 40 mg, 60 LPM, 2 s, 9.18 J.
Setting [15] is: RS.01.LR, fill 25 mg, 60 LPM, 2 s, 2.85 J.
Setting [16] is: RS.01.LR, fill 40 mg, 60 LPM, 2 s, 2.85 J.
[17] abbreviates: all measured lower energies (<9.2 Joules), 25 and 40 mg fill weights.

For `CC(C)C[C@H](N)C(=O)O` [Leucine], in data set [1], the “ΔH (kJ/mol)” value was -6 kJ/mol, the “ΔH (kcal/mol)” value is -1.5 kcal/mol, the “Q” value is 0.37 cal and the “ΔT (deg. C)” value stood at 0.003 deg. C.
With `[Cl-].[Cl-].[Mg+2]` [Pure magnesium chloride, magnesium chloride], the “fine particle fraction less than 5.6 microns” value in data set [2] was 19%. For the same compound, the “median volume particle size” value in data set [3] (spray dried from 70% ethanol, 50 g/L) amounted to 4 microns. For the same compound, the “median particle size (HELOS/RODOS)” value in data set [3] (spray dried from D.I. water, 20 g/L) stood at 21 microns.
For the compound “albuterol sulfate [Micronized Albuterol 073-001-02-039A]”, the “average CEPM, share of capsule fill weight” value in data set [4] (setting [5]) is recorded as 93%; in data set [4] (setting [6]), 84%. Also, the “average Dv50” value in data set [4] (setting [5]) is recorded as 1.8 μm; in data set [4] (setting [6]) it was 1.6 μm. Moreover, the “Mean CEPM” value in data set [4] (setting [7]) came out at 3.12 mg; in data set [4] (setting [8]) it was 5.00 mg; in data set [4] (setting [9]) it was 7.08 mg; in data set [4] (setting [10]), 23.18 mg; in data set [4] (setting [11]) it was 2.43 mg; in data set [4] (setting [12]), 4.97 mg. For the same compound, the “Mean CEPM” value in data set [4] (setting [13]) was 8.55 mg; in data set [4] (setting [14]) it was 33.40 mg; in data set [4] (setting [15]) it was 15.28 mg; in data set [4] (setting [16]), 18.88 mg. The “Mean Dv50” value amounted to 16.76 μm in data set [4] (setting [7]); 8.40 μm in data set [4] (setting [8]); 3.86 μm in data set [4] (setting [9]); 1.77 μm in data set [4] (setting [10]); 17.63 μm in data set [4] (setting [11]); 6.34 μm in data set [4] (setting [12]). Besides, the “Mean Dv50” value in data set [4] (setting [13]) turned out to be 3.13 μm; in data set [4] (setting [14]), 1.60 μm; in data set [4] (setting [15]), 2.57 μm; in data set [4] (setting [16]), 2.62 μm. The “Mean FPF, % < 5 μm” value in data set [4] (setting [7]) came out at 13.00%; in data set [4] (setting [8]), 32.10%; in data set [4] (setting [9]), 59.44%; in data set [4] (setting [10]), 81.65%; in data set [4] (setting [11]), 10.73%; in data set [4] (setting [12]), 42.24%. Besides, the “Mean FPF, % < 5 μm” value in data set [4] (setting [13]) was determined as 67.18%; in data set [4] (setting [14]), 84.30%; in data set [4] (setting [15]) it was 75.01%; in data set [4] (setting [16]) it was 73.98%. Also, in data set [4] (setting [17]), the CEPM entry is listed as “below 10 mg”. Further, the “CEPM, share of capsule fill weight” value in data set [4] (setting [17]) is less than 30%. The Dv50 in data set [4] (25 mg fill weight) worked out at 3.9 μm; in data set [4] (40 mg fill weight), 3.1 μm.
In the case of `O.O.[Ca+2].[Cl-].[Cl-]` [CaCl2.2H2O], in data set [1], the “ΔH (kJ/mol)” value is -50.6 kJ/mol, the “ΔH (kcal/mol)” value was -12.1 kcal/mol, the “Q” value amounted to 2.93 cal and the “ΔT (deg. C)” value was determined as 0.024 deg. C.
